5 molecules from US20210290765A1, “SURFACTANTS FOR HEALTHCARE PRODUCTS” (AdvanSix Resins & Chemicals LLC, priority 2020, published 2021) can be followed below.

Assay type in all cases: physicochemical
A short description of data set [1]: Dynamic surface tension, bubble pressure tensiometer. An excerpt:
Another parameter used to assess the performance of surfactants is dynamic surface tension. The dynamic surface tension is the value of the surface tension for a particular surface or interface age. In the case of liquids with added surfactants, this can differ from the equilibrium value. Immediately after a surface is produced, the surface tension is equal to that of the pure liquid. As described above, surfactants reduce surface tension; therefore, the surface tension drops until an equilibrium value is reached. The time required for equilibrium to be reached depends on the diffusion rate and the adsorption rate of the surfactant.
One method by which dynamic surface tension is measured relies upon a bubble pressure tensiometer. This device measures the maximum internal pressure of a gas bubble that is formed in a liquid by means of a capillary. The measured value corresponds to the surface tension at a certain surface age, the time from the start of the bubble formation to the occurrence of the pressure maximum. The dependence of surface tension on surface age can be measured by varying the speed at which bubbles are produced.
(§1) Nuclear magnetic resonance (NMR) spectroscopy was performed on a Bruker 500 MHz spectrometer. The critical micelle concentration (CMC) was determined by the Wilhelmy plate method at 23° C. with a tensiometer (DCAT 11, DataPhysics Instruments GmbH) equipped with a Pt—Ir plate. Dynamic surface tension was determined with a bubble pressure tensiometer (Krüss BP100, Krüss GmbH), at 23° C. Contact angle was determined with the optical contact angle goniometer (OCA 15 Pro, DataPhysics GmbH) equipped with a digital camera.

The nature of data set [2]: Wetting properties: contact angle on solid substrates, optical contact angle goniometer. The settings on record: 10x CMC.
Excerpt: Surface-active compounds may also be assessed by their wetting ability on solid substrates as measured by the contact angle. When a liquid droplet comes in contact with a solid surface in a third medium, such as air, a three-phase line forms among the liquid, the gas and the solid. The angle between the surface tension unit vector, acting at the three-phase line and tangent at the liquid droplet, and the surface is described as the contact angle. The contact angle (also known as wetting angle) is a measure of the wettability of a solid by a liquid. In the case of complete wetting, the liquid is completely spread over the solid and the contact angle is 0°. Wetting properties are typically measured for a given compound at the concentration of 1-100×CMC, however, it is not a property that is concentration-dependent therefore measurements of wetting properties can be measured at concentrations that are higher or lower.
In one method, an optical contact angle goniometer may be used to measure the contact angle. This device uses a digital camera and software to extract the contact angle by analyze the contour shape of a sessile droplet of liquid on a surface.
as §1

The nature of data set [3]: Critical micelle concentration (CMC) and surface tension versus concentration in water, Wilhelmy plate method. Particulars: for plateau value of minimum surface tension that can be reached / surface tension at the CMC (from the plot) / critical micelle concentration (CMC): 23° C.; for plateau value of minimum surface tension that can be reached / surface tension at the CMC (from the plot): pH=7; for critical micelle concentration (CMC): pH=7, Wilhelmy plate.
Excerpt: These properties may be measured and described by various methods. One method by which surfactants may be described is by the molecule's critical micelle concentration (CMC). CMC may be defined as the concentration of a surfactant at which micelles form, and above which all additional surfactant is incorporated into micelles.
As surfactant concentration increases, surface tension decreases. Once the surface is completely overlaid with surfactant molecules, micelles begin to form. This point represents the CMC, as well as the minimum surface tension. Further addition of surfactant will not further affect the surface tension. CMC may therefore be measured by observing the change in surface tension as a function of surfactant concentration. One such method for measuring this value is the Wilhemy plate method. A Wilhelmy plate is usually a thin iridium-platinum plate attached to a balance by a wire and placed perpendicularly to the air-liquid interface. The balance is used to measure the force exerted on the plate by wetting. This value is then used to calculate the surface tension (γ) according to Equation 1: […]
wherein I is equal to the wetted perimeter (2w+2d, in which w and d are the plate thickness and width, respectively) and cos θ, the contact angle between the liquid and the plate, is assumed to be 0 in the absence of an extant literature value.
as §1

Where [4] appears, read: surface age 1 ms, air-water interface, 23° C.
[5] abbreviates: substrate Polyethylene terephthalate.

On to `CCCCCCCCCCCCOC(=O)CCCCC[N+](C)(C)C.[I-]` [Surfactant 1, 6-(dodecyloxy)-N,N,N-trimethyl-6-oxohexan-1-aminium iodide], for which the dynamic surface tension entry is “about 55.5 mN/m” in data set [1] (setting [4]); “about 39.9 mN/m” in data set [1] (surface age 75 ms, air-water interface, 23° C.); “about 34 mN/m” in data set [1] (surface age 50,410 ms, air-water interface, 23° C.). Besides, the “CA of Surfactant (contact angle)” value in data set [2] (substrate Nylon) was determined as 31.5 °; in data set [2] (setting [5]), 38.4 °; in data set [2] (substrate Polyethylene-HD), 32 °; in data set [2] (substrate Teflon), 67.1 °. For the same molecule, in data set [3], the “plateau value of minimum surface tension that can be reached” value (“plateau value” below) was “about 33 mN/m”. Also, the surface tension (as a rule, the force per length acting along the surface) at the CMC (from the plot) in data set [3] was “about 34 mN/m”. Moreover, the “critical micelle concentration (CMC)” value in data set [3] is listed as “about 1 mmol”. The surface tension result in data set [3] (at a concentration of 1.0 mmol or greater) is reported as “about 33.8 mN/m”.
On to `CCCCCCCCCCCCOC(=O)CCCCC[N+](C)(C)[O-]` [Surfactant 2, dodecyl 6-(dimethylamino)hexanoate N-oxide], for which the “time in which the compound fully saturated the surface” value (shortened to “time”) in data set [1] (air-water interface, 23° C.) is “approximately 7.6 seconds”. The dynamic surface tension in data set [1] (surface age of 4900 ms or greater) is at most 40 mN/m. Also, the “CA of Surfactant (contact angle)” value in data set [2] (substrate Nylon) was 21.7 °; in data set [2] (setting [5]), 24.5 °; in data set [2] (substrate Polyethylene-HD) it was 39.3 °; in data set [2] (substrate Teflon) it was 57.4 °. The “plateau value” value in data set [3] is listed as “about 28 mN/m”. The “surface tension at the CMC (from the plot)” value (shortened to “surface tension at the CMC”) in data set [3] is recorded as at most 30 mN/m. Further, in data set [3], the “critical micelle concentration (CMC)” value is listed as “about 0.08 mmol”. Also, the surface tension in data set [3] (at a concentration of 0.08 mmol or greater) is on record as at most 30 mN/m.
For `CCCCCCCCCCCCOC(=O)CCCCCN(C)C.Cl` [Surfactant 3, 6-(dodecyloxy)-N,N-dimethyl-6-oxohexan-1-aminium chloride], the dynamic surface tension result in data set [1] (setting [4]) is listed as “about 50 mN/m”; in data set [1] (surface age 100 ms, air-water interface, 23° C.) it was “about 40 mN/m”; in data set [1] (surface age 50,000 ms, air-water interface, 23° C.), “about 34 mN/m”. Also, the “CA of Surfactant (contact angle)” value in data set [2] (substrate Nylon) was 15 °; in data set [2] (setting [5]), 18.3 °; in data set [2] (substrate Polyethylene-HD) it was 42.5 °; in data set [2] (substrate Teflon), 66.6 °. Besides, the “plateau value” value in data set [3] was “about 30 mN/m”. The “surface tension at the CMC” value in data set [3] is listed as at most 30 mN/m. Also, the “critical micelle concentration (CMC)” value in data set [3] is listed as “about 1.4 mmol”. In addition, in data set [3] (at a concentration of 2.7 mmol or greater), the surface tension is listed as at most 33 mN/m.
Regarding `CCCCCCCCCCCCOC(=O)CCCCC[N+](C)(C)CCCCS(=O)(=O)[O-]` [Surfactant 4, 4-((6-(dodecyloxy)-6-oxohexyl)dimethylammonio)butane-1-sulfonate], the “time” value in data set [1] (air-water interface, 23° C.) was “approximately 1 seconds”. Also, the dynamic surface tension in data set [1] (surface age of 4000 ms or greater) is recorded as at most 40.5 mN/m. The “CA of Surfactant (contact angle)” value in data set [2] (substrate Nylon) is listed as 25.7 °; in data set [2] (setting [5]), 35.6 °; in data set [2] (substrate Polyethylene-HD) it was 46.5 °; in data set [2] (substrate Teflon), 62.7 °. The “plateau value” value in data set [3] is “about 38 mN/m”. For the same molecule, in data set [3], the “surface tension at the CMC” value was “about 38 mN/m”. Also, the “critical micelle concentration (CMC)” value in data set [3] was “about 0.1 mmol”. For the same molecule, in data set [3] (at a concentration of 1 mmol or greater), the surface tension is at most 37 mN/m.
Regarding `CCCCCCCCCCCCOC(=O)CCCCCN.Cl` [Surfactant 5, 6-(dodecyloxy)-6-oxohexan-1-aminium chloride], in data set [1] (air-water interface, 23° C.), the “time” value was “approximately 1.5 seconds”. In data set [1] (surface age of 3185 ms or greater), this molecule showed a dynamic surface tension of at most 28.5 mN/m. In addition, the “CA of Surfactant (contact angle)” value in data set [2] (substrate Nylon) stood at 18.2 °; in data set [2] (setting [5]), 15.3 °; in data set [2] (substrate Polyethylene-HD), 16.6 °; in data set [2] (substrate Teflon) it was 39.3 °. Also, the “plateau value” value in data set [3] is given as “about 23 mN/m”. In addition, the “surface tension at the CMC” value in data set [3] is “about 23 mN/m”. Besides, the “critical micelle concentration (CMC)” value in data set [3] is “about 0.75 mmol”. Besides, the surface tension in data set [3] (at a concentration of 0.7 mmol or greater) was at most 23.2 mN/m.
